From US20080069809A1, “Compositions and methods for the diagnosis and treatment of cancer” (priority 2006, published 2008)

Tests used:
HL60 = assay: Apoptosis (sub-G1 DNA by FACS, caspase-3 activation) in HL60 leukemic cells; format: cell-based
Method: (§1) The myeloid leukemic cell lines HL60, NB60, NB4, U937, K562 and KG1a were all grown in RPMI 1640 medium (Life Technologies, Paisley, United Kingdom) supplemented with 10% v/v fetal calf serum (Sear Laboratories International Crawley, United Kingdom), 100 U/mL penicillin, and 100 μg/mL streptomycin (Sigma Aldrich, Poole, United Kingdom) at 37° C. and 5% v/v CO2. AML blasts were isolated from patient bone marrow aspirates and peripheral blood of eight patients at diagnosis or relapse. Patients were not receiving AML therapy at time of sampling. Blasts were isolated by Ficoll density centrifugation and were cultured in serum-free insulin transferrin selenium-positive (ITS+) medium (Life Technologies) containing 300 ng/mL stem cell factor (SCF) and 10 ng/mL interleukin 3 (IL3; R and D Systems, Abingdon, United Kingdom) and antibiotics. […] Normal myeloblasts were isolated from cord blood or adult mobilized peripheral blood. Briefly, CD34^+ cells were indirectly selected from the mononuclear cell preparations using antibody-coated magnetic beads (Miltenyi Biotec, United Kingdom).
To determine the effects of ingenol-3-angelate (PEP005), cells were incubated for up to 5 days with medium alone or PEP005 at a range of concentrations from 0.2 nM to 20 μM. PEP005 was extracted from Euphorbia peplus and supplied as a 98.5% pure preparation by Peplin Limited (Brisbane, Australia) as a dry pellet and was made up to a stock of […] in acetone on a weekly basis. Stocks were stored at 4° C. and diluted into medium when required. Final acetone concentration was never more than 0.1% v/v. Apoptosis and differentiation were assessed after 1 to 5 days.

K562 = conditions: less sensitive, treated 5 days
Method: as §1
(§2) To determine the effects of ingenol-3-angelate (PEP005), cells were incubated for up to 5 days with medium alone or PEP005 at a range of concentrations from 0.2 nM to 20 μM. […] Apoptosis and differentiation were assessed after 1 to 5 days.

U937 = conditions: sub-G1 DNA by FACS, treated 5 days
Method: as §1, §2

PKC-δ = target: T1, PKC-δ (Homo sapiens, UniProt Q05655); assay: PKC-δ activation by translocation (cell fractionation, Western blotting) in HL60 cells; format: cell-based; conditions: 10 minutes
T1 construct: endogenous in cells; host or cells: HL60
Method: PKC translocates from the soluble to the particulate fraction of cells when activated and this method was used to assess activation of PKC-δ by PEP005 and PMA. Briefly, cells were incubated for 10 minutes in medium alone or 20 nM PEP005 or 20 nM PMA, washed twice in phosphate buffered saline (PBS) and then lysed by homogenization in hypotonic lysis buffer in the absence of detergent. Lysis was checked using trypan blue uptake. Nuclei were isolated by centrifugation at 1000 g for 10 minutes. Centrifugation at 100,000 g for 45 minutes at 4° C. was used to isolate the cytosol (supernatant) and cell membrane (pellet) fractions. All were taken up in SDS sample buffer and analyzed for PKC-δ by Western blotting.

caspase-3 = assay: Caspase-3 phosphorylation in 32PO4-labeled HL60 cells; format: cell-based; conditions: 20 nM PEP005
Method: To determine if PEP005 induced caspase-3 phosphorylation, HL60 cells were incubated with 1.5×10^7 Bq/mL ^32PO4 (Amersham Pharmacia) in phosphate-free medium for 3 hours prior to addition of 20 nM PEP005 or PEP005 and 5 μM rottlerin (Calbiochem, Nottingham, United Kingdom). Cells were then lysed and caspase-3 was immunoprecipitated with an anti-caspase-3 antibody (BD Pharmingen, Oxford, United Kingdom) or an irrelevant isotype-matched control antibody (DAKO) and the immunoprecipitate was isolated using an anti-mouse immunoglobulin G (IgG) antibody (DAKO) and protein G-coated magnetic beads (microbeads; Miltenyi Biotech). The isolate was taken up in SDS sample buffer and run on a 10% w/v SDS-polyacrylamide gel electrophoresis (PAGE) gel and the labeled proteins were visualized using a phosphorimager.

EGFP-tagged mouse PKC-δ = EGFP-tagged mouse PKC-δ (Mus musculus, UniProt P28867); conditions: KG1a
Method: KG1a cells were transfected with PKC-δ-EGFP or pEGFP-N1 (vector control). At 24 hours after transfection, cells were treated with 0, 0.2, 2 and 20 μM PEP005 and cytospins prepared after 15 minutes. Slides were fixed with 2% v/v paraformaldehyde in PBS for 20 minutes, rinsed briefly in PBS and mounted in Vectashield containing DAPI (4.6 diamidino-2-phenylindole; Vector Laboratories, Burlingame, Calif.). Slides were examined using a Leica Fluorescence microscope (Leica, Heidelberg, Germany) fitted with ×60 oil immersion objective. Images were captured using a Hamanatsu C4742-95 camera (Grafter Imaging, Austin, Tex.) and analyzed using OpenLab 3.1 software (Improvision, Coventry, United Kingdom).

T1 sequence (Q05655 whole entry): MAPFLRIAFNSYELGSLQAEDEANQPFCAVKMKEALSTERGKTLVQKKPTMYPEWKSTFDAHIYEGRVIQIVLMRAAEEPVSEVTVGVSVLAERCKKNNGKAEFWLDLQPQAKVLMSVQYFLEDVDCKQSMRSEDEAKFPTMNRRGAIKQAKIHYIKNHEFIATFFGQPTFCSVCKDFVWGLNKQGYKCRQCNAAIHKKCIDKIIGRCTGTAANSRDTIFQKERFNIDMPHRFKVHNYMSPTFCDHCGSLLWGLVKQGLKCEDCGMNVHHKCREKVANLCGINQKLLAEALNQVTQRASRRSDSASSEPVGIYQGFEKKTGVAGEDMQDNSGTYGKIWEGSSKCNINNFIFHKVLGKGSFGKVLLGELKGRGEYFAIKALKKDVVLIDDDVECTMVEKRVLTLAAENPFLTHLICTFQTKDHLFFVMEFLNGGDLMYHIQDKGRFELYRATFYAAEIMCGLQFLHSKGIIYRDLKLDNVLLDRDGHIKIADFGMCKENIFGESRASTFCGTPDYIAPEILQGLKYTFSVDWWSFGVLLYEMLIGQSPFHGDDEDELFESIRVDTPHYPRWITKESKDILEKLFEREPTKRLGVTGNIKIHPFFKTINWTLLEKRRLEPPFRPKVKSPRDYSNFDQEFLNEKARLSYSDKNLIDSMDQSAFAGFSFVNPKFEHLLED
Chain of EGFP-tagged mouse PKC-δ (P28867 whole entry): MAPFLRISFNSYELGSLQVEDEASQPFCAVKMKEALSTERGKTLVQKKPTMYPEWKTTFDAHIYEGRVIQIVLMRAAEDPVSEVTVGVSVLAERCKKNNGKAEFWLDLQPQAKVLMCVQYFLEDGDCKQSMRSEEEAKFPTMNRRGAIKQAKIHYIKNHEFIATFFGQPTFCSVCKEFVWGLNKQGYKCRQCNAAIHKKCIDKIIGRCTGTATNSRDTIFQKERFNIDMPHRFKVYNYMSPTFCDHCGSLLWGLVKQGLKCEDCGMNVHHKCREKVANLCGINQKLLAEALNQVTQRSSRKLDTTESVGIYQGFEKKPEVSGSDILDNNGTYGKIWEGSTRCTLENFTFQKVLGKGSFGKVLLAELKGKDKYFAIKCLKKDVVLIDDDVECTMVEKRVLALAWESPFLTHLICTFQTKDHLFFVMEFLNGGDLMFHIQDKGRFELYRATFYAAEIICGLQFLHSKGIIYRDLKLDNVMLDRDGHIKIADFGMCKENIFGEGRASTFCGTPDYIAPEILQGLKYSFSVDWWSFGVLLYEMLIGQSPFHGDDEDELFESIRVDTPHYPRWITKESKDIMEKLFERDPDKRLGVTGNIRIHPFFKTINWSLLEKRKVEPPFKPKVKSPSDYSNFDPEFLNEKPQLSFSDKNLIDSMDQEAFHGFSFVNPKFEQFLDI

## C/C=C(/C)C(=O)O[C@H]1C(C)=C[C@]23C(=O)[C@@H](C=C(CO)[C@@H](O)[C@]12O)[C@H]1[C@@H](C[C@H]3C)C1(C)C [PEP005, ingenol-3-angelate]
HL60; after 3 days of treatment, PMA 20 nM
  apoptosis (caspase-3 activity): apoptosis was the dominant effect
HL60; sub-G1 DNA by FACS, treated 5 days
  PEP005 concentration with optimal effect, apoptosis: 20 nM
HL60; within the first 1 to 2 days of treatment
  fraction of cells entering apoptosis (kinetic study): up to half of the cells entering apoptosis
K562
  PEP005 concentration with maximal response, apoptosis: 2 µM
U937
  PEP005 concentration with optimal effect, apoptosis: 20 nM
PKC-δ; 20 nM PEP005 or 20 nM PMA
  site of initial PKC-δ translocation: to the nuclear and cell membranes
PKC-δ; 20 nM
  activation of PKC-δ (translocation from cytosol to membrane fraction): induced activation of PKC-δ
caspase-3
  induction of caspase-3 phosphorylation: able to induce caspase-3 phosphorylation
EGFP-tagged mouse PKC-δ; 200 nM PEP005
  time to translocation of EGFP-tagged PKC-δ to the nuclear region: ≤ 5 min
EGFP-tagged mouse PKC-δ; from cytosol after PEP005 treatment
  translocation of EGFP-PKC-δ: induced its translocation to the nucleus and perinuclear region
